# In PubChem BioAssay (NCI):
#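 At the GI50, growth is halved. TGI is the concentration that stops growth completely.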
# Tests used:
# Assay in all cases: NCI tumour cell line growth inhibition, 384-well format
# KM12 colon = test system: KM12 colon
# NCI/ADR-RES ovarian = test system: NCI/ADR-RES ovarian
# BT-549 breast = test system: BT-549 breast
# OVCAR-3 ovarian = test system: OVCAR-3 ovarian
# HOP-62 NSCLC = test system: HOP-62 NSCLC
# MDA-MB-468 breast = test system: MDA-MB-468 breast
# A549 NSCLC = test system: A549 NSCLC
# T-47D breast = test system: T-47D breast
# HCT-116 colon = test system: HCT-116 colon
# OVCAR-8 ovarian = test system: OVCAR-8 ovarian
# MALME-3M melanoma = test system: MALME-3M melanoma
# SNB-19 CNS = test system: SNB-19 CNS
# HL-60(TB) leukemia = test system: HL-60(TB) leukemia
# SF-295 CNS = test system: SF-295 CNS
# TK-10 renal = test system: TK-10 renal
# HOP-92 NSCLC = test system: HOP-92 NSCLC
# SK-OV-3 ovarian = test system: SK-OV-3 ovarian
# NCI-H226 lung = test system: NCI-H226 lung
# COLO 205 colon = test system: COLO 205 colon
# MDA-MB-231 breast = test system: MDA-MB-231 breast
# SK-MEL-5 melanoma = test system: SK-MEL-5 melanoma
# RXF 393 renal = test system: RXF 393 renal
# SK-MEL-2 melanoma = test system: SK-MEL-2 melanoma
# MCF7 breast = test system: MCF7 breast
# UACC-62 melanoma = test system: UACC-62 melanoma
# NCI-H23 lung = test system: NCI-H23 lung
# SN12C renal = test system: SN12C renal
# PC-3 prostate = test system: PC-3 prostate
# HCT-15 colon = test system: HCT-15 colon
# UO-31 renal = test system: UO-31 renal
# CCRF-CEM leukemia = test system: CCRF-CEM leukemia
# OVCAR-4 ovarian = test system: OVCAR-4 ovarian
# CAKI-1 renal = test system: CAKI-1 renal
# NCI-H460 NSCLC = test system: NCI-H460 NSCLC
# HT29 colon = test system: HT29 colon
# M14 melanoma = test system: M14 melanoma
# MOLT-4 leukemia = test system: MOLT-4 leukemia
# MDA-MB-435 melanoma = test system: MDA-MB-435 melanoma
# RPMI-8226 leukemia = test system: RPMI-8226 leukemia
# IGROV1 ovarian = test system: IGROV1 ovarian
# UACC-257 melanoma = test system: UACC-257 melanoma
# NCI-H522 lung = test system: NCI-H522 lung
# ACHN renal = test system: ACHN renal
# SR leukemia = test system: SR leukemia
# 786-0 renal = test system: 786-0 renal
# U251 glioblastoma = test system: U251 glioblastoma
# NCI-H322M lung = test system: NCI-H322M lung
# SF-268 CNS = test system: SF-268 CNS
# SW-620 colon = test system: SW-620 colon
# DU-145 prostate = test system: DU-145 prostate
# SK-MEL-28 melanoma = test system: SK-MEL-28 melanoma
# A498 renal = test system: A498 renal
# LOX IMVI melanoma = test system: LOX IMVI melanoma
# HCC-2998 colon = test system: HCC-2998 colon
# SF-539 CNS = test system: SF-539 CNS
# OVCAR-5 ovarian = test system: OVCAR-5 ovarian
smiles,measurement,setting,value
Cc1ccc(NC(=O)c2ccc(CN3CC[C@H](N(C)C)C3)c(C(F)(F)F)c2)cc1Nc1nccc(-c2cncnc2)n1,GI50,KM12 colon,2510 nM
same,TGI,KM12 colon,5920 nM
same,GI50,NCI/ADR-RES ovarian,3880 nM
same,TGI,NCI/ADR-RES ovarian,13300 nM
same,GI50,BT-549 breast,3960 nM
same,TGI,BT-549 breast,10000 nM
same,GI50,OVCAR-3 ovarian,2400 nM
same,TGI,OVCAR-3 ovarian,5420 nM
same,GI50,HOP-62 NSCLC,2190 nM
same,TGI,HOP-62 NSCLC,6540 nM
same,GI50,MDA-MB-468 breast,2180 nM
same,TGI,MDA-MB-468 breast,3660 nM
same,GI50,A549 NSCLC,3010 nM
same,TGI,A549 NSCLC,10900 nM
same,GI50,T-47D breast,1530 nM
same,TGI,T-47D breast,3060 nM
same,GI50,HCT-116 colon,1380 nM
same,TGI,HCT-116 colon,2740 nM
same,GI50,OVCAR-8 ovarian,2190 nM
same,TGI,OVCAR-8 ovarian,5300 nM
same,GI50,MALME-3M melanoma,147 nM
same,TGI,MALME-3M melanoma,436 nM
same,GI50,SNB-19 CNS,4560 nM
same,TGI,SNB-19 CNS,13600 nM
same,GI50,HL-60(TB) leukemia,433 nM
same,TGI,HL-60(TB) leukemia,1310 nM
same,GI50,SF-295 CNS,1900 nM
same,TGI,SF-295 CNS,3420 nM
same,GI50,TK-10 renal,2200 nM
same,TGI,TK-10 renal,4710 nM
same,GI50,HOP-92 NSCLC,1640 nM
same,TGI,HOP-92 NSCLC,3140 nM
same,GI50,SK-OV-3 ovarian,2090 nM
same,TGI,SK-OV-3 ovarian,4530 nM
same,GI50,NCI-H226 lung,2090 nM
same,TGI,NCI-H226 lung,5070 nM
same,GI50,COLO 205 colon,396 nM
same,TGI,COLO 205 colon,1780 nM
same,GI50,MDA-MB-231 breast,1750 nM
same,TGI,MDA-MB-231 breast,3240 nM
same,GI50,SK-MEL-5 melanoma,674 nM
same,TGI,SK-MEL-5 melanoma,1990 nM
same,GI50,RXF 393 renal,1520 nM
same,TGI,RXF 393 renal,3220 nM
same,GI50,SK-MEL-2 melanoma,1200 nM
same,TGI,SK-MEL-2 melanoma,2460 nM
same,GI50,MCF7 breast,2310 nM
same,TGI,MCF7 breast,7760 nM
same,GI50,UACC-62 melanoma,318 nM
same,TGI,UACC-62 melanoma,1290 nM
same,GI50,NCI-H23 lung,2060 nM
same,TGI,NCI-H23 lung,7780 nM
same,GI50,SN12C renal,2580 nM
same,TGI,SN12C renal,6550 nM
same,GI50,PC-3 prostate,3380 nM
same,TGI,PC-3 prostate,8450 nM
same,GI50,HCT-15 colon,2490 nM
same,TGI,HCT-15 colon,5660 nM
same,GI50,UO-31 renal,2000 nM
same,TGI,UO-31 renal,4130 nM
same,GI50,CCRF-CEM leukemia,1990 nM
same,TGI,CCRF-CEM leukemia,3440 nM
same,GI50,OVCAR-4 ovarian,2430 nM
same,TGI,OVCAR-4 ovarian,6600 nM
same,GI50,CAKI-1 renal,2860 nM
same,TGI,CAKI-1 renal,6720 nM
same,GI50,NCI-H460 NSCLC,1670 nM
same,TGI,NCI-H460 NSCLC,3350 nM
same,GI50,HT29 colon,947 nM
same,TGI,HT29 colon,2190 nM
same,GI50,M14 melanoma,233 nM
same,TGI,M14 melanoma,811 nM
same,GI50,MOLT-4 leukemia,1780 nM
same,TGI,MOLT-4 leukemia,3170 nM
same,GI50,MDA-MB-435 melanoma,1050 nM
same,TGI,MDA-MB-435 melanoma,3510 nM
same,GI50,RPMI-8226 leukemia,1340 nM
same,TGI,RPMI-8226 leukemia,2620 nM
same,GI50,IGROV1 ovarian,3680 nM
same,TGI,IGROV1 ovarian,13900 nM
same,GI50,UACC-257 melanoma,430 nM
same,TGI,UACC-257 melanoma,1760 nM
same,GI50,NCI-H522 lung,1520 nM
same,TGI,NCI-H522 lung,3400 nM
same,GI50,ACHN renal,1840 nM
same,TGI,ACHN renal,4100 nM
same,GI50,SR leukemia,1820 nM
same,TGI,SR leukemia,3230 nM
same,GI50,786-0 renal,1890 nM
same,TGI,786-0 renal,3470 nM
same,GI50,U251 glioblastoma,1950 nM
same,TGI,U251 glioblastoma,3760 nM
same,GI50,NCI-H322M lung,3920 nM
same,TGI,NCI-H322M lung,12800 nM
same,GI50,SF-268 CNS,2720 nM
same,TGI,SF-268 CNS,6990 nM
same,GI50,SW-620 colon,3080 nM
same,TGI,SW-620 colon,10600 nM
same,GI50,DU-145 prostate,6800 nM
same,TGI,DU-145 prostate,18900 nM
same,GI50,SK-MEL-28 melanoma,304 nM
same,TGI,SK-MEL-28 melanoma,1130 nM
same,GI50,A498 renal,2690 nM
same,TGI,A498 renal,6220 nM
same,GI50,LOX IMVI melanoma,1030 nM
same,TGI,LOX IMVI melanoma,2220 nM
same,GI50,HCC-2998 colon,1160 nM
same,TGI,HCC-2998 colon,2640 nM
same,GI50,SF-539 CNS,1430 nM
same,TGI,SF-539 CNS,2750 nM
same,GI50,OVCAR-5 ovarian,1860 nM
same,TGI,OVCAR-5 ovarian,4570 nM
